Reference: the kinase profiling compilation of Christmann-Franck et al. (2016)

Columns and labels:
PRKAA1 (human) = PRKAA1 (human) (UniProt Q13131); details: compound 10.0 µM
AKT1 (human) = AKT1 (human) (UniProt P31749); details: compound 10.0 µM
PIM1 (human) = PIM1 (human) (UniProt P11309); details: compound 10.0 µM
PRKACA (mouse) = details: compound 10.0 µM; accession and sequence are those of the human protein
PRKAA2 (human) = PRKAA2 (human) (UniProt P54646); details: compound 10.0 µM
FGFR1 (human) = FGFR1 (human) (UniProt P11362); details: compound 10.0 µM
Sequence of FGFR1 (human) (P11362 whole entry, looked up): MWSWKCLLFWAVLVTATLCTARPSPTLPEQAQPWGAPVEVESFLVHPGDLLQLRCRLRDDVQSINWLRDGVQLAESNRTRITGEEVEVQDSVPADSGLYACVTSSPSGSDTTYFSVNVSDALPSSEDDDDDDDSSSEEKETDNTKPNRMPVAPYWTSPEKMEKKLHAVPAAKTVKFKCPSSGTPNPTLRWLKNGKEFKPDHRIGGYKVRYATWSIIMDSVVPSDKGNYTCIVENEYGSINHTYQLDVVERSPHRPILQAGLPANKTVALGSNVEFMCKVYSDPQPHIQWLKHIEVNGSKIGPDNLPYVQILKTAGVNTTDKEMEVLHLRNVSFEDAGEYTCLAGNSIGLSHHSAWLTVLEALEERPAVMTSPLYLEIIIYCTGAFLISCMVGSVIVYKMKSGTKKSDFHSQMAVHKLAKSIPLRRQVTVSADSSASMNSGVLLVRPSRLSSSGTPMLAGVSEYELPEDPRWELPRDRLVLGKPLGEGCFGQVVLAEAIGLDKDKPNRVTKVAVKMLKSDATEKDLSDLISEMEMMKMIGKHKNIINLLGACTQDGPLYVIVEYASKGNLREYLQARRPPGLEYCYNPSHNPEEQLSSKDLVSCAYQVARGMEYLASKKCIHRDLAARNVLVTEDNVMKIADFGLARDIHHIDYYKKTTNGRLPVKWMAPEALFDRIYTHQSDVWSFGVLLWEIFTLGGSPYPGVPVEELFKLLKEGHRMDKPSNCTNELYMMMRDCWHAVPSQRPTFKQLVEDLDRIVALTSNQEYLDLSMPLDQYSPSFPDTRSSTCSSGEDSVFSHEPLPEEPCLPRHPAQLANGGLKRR

Sequence of AKT1 (human) (P31749 whole entry, looked up): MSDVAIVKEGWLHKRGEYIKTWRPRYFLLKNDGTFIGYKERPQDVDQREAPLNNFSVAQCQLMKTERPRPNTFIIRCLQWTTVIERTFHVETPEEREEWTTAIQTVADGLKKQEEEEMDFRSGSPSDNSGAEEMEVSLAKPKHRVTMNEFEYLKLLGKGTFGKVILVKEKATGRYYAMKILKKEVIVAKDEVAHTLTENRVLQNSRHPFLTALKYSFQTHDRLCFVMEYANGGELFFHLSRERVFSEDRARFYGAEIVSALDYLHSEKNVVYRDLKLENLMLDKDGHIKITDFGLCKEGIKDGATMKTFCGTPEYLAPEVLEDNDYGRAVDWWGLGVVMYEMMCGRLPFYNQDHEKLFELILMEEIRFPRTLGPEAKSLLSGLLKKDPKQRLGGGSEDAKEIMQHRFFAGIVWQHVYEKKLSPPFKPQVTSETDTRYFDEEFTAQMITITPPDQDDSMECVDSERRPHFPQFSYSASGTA
Sequence of PRKAA1 (human) (Q13131 whole entry, looked up): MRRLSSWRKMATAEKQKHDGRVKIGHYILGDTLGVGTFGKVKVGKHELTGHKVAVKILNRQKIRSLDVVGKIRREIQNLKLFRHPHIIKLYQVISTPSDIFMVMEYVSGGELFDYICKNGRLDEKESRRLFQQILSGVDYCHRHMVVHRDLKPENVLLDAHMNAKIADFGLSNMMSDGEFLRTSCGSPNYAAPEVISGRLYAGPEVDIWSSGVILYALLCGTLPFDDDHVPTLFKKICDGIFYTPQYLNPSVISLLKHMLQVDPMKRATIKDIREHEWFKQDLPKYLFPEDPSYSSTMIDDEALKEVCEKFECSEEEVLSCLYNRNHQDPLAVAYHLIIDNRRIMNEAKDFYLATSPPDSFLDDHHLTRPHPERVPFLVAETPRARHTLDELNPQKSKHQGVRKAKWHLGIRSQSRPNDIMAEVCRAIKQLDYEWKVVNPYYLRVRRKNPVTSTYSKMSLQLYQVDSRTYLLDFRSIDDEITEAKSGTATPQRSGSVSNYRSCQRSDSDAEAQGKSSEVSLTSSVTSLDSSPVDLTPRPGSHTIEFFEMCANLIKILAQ
Sequence of PRKAA2 (human) (P54646 whole entry, looked up): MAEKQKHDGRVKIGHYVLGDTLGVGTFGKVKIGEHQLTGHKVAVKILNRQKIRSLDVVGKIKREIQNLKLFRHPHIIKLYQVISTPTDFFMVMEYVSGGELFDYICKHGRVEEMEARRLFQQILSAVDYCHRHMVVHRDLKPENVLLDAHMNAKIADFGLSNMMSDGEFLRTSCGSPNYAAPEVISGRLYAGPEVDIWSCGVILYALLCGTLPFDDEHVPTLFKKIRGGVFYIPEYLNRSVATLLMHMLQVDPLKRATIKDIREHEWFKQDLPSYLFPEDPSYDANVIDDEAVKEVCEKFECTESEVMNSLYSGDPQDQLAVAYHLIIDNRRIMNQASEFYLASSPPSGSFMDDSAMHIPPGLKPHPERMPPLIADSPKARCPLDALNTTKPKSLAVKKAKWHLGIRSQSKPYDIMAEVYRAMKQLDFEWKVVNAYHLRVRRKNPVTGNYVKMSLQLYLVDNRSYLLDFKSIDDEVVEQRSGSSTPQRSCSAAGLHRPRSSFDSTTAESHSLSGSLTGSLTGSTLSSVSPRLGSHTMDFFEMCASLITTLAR
Sequence of PIM1 (human) (P11309 whole entry, looked up): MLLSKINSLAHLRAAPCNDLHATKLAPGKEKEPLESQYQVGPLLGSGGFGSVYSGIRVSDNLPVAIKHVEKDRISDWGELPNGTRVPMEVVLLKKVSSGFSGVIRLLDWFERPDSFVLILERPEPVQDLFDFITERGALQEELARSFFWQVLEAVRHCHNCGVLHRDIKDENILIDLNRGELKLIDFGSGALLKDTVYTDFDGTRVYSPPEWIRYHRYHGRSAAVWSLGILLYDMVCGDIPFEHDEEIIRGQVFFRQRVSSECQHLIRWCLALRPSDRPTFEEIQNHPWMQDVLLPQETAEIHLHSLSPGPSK

| inhibition (PRKAA1 (human)) | inhibition (AKT1 (human)) | inhibition (PIM1 (human)) | inhibition (PRKACA (mouse)) | inhibition (PRKAA2 (human)) | inhibition (FGFR1 (human)) | Structure (SMILES) |
| --- | --- | --- | --- | --- | --- | --- |
| 0% | 3% | 32% | 5% | 5% | 12% | Cn1cc(C2=C(c3ccc(Cl)cc3Cl)C(=O)NC2=O)c2ccccc21 |
| 0% | 0% | 0% | 3% | 0% | 0% | N#C/C(=C\c1ccc(O)c(O)c1)C(=O)NCc1ccccc1 |
| 0% | 0% | 0% | 0% | 0% | 0% | COc1nccc(-c2c(-c3ccc(F)cc3)ncn2[C@H]2CC[C@H](O)CC2)n1 |
| 0% | 0% | 0% | 0% | 0% | 0% | N#CC(=C(\N)Sc1ccccc1N)/C(C#N)=C(/N)Sc1ccccc1N |
| 0% | 6% | 12% | 16% | 0% | 68% | COc1cc2nccc(Oc3ccc(NC(=O)Nc4ccc(F)cc4F)c(F)c3)c2cc1OC |
| 0% | 5% | 7% | 5% | 0% | 13% | Cn1cnc2c(NCc3ccccc3)nc(NCCO)nc21 |
| 7% | 12% | 31% | 14% | 7% | 57% | COc1cc2ncn(-c3cc(OCc4ccccc4C(F)(F)F)c(C(N)=O)s3)c2cc1OC |
| 5% | 0% | 0% | 7% | 0% | 28% | CC(C)[C@H](CO)Nc1nc(Nc2cccc(Cl)c2)c2ncn(C(C)C)c2n1 |
| 7% | 39% | 50% | 21% | 32% | 37% | Fc1ccc(Cl)cc1-c1nc(Nc2ccncc2)c2nccnc2n1 |
| 0% | 0% | 0% | 0% | 0% | 0% | C=CC(=O)c1ccc2ccccc2c1 |
| 0% | 0% | 11% | 1% | 0% | 9% | c1ccc(-c2n[nH]cc2-c2ccnc3ccccc23)nc1 |
| 13% | 0% | 1% | 2% | 0% | 10% | Cc1cc(F)c(Nc2ncnc3cc(OCc4ccccc4)ccc23)cc1O |
| 0% | 15% | 60% | 13% | 0% | 19% | O=C1NC(=O)c2cc(Nc3ccc(F)cc3)c(Nc3ccc(F)cc3)cc21 |
| 0% | 19% | 73% | 9% | 0% | 32% | O=C1Nc2ccc(I)cc2/C1=C/c1cc(Br)c(O)c(Br)c1 |
| 0% | 0% | 0% | 1% | 0% | 0% | CC(C)N(CCC(=O)c1ccc2ccccc2c1)Cc1ccccc1 |
| 1% | 0% | 0% | 0% | 0% | 0% | NC(=O)c1sc(-c2ccsc2)cc1N |
| 0% | 0% | 27% | 1% | 0% | 13% | COc1cc2ncnc(Nc3ccc(F)c(Cl)c3)c2cc1OCCCN1CCOCC1 |
| 1% | 0% | 1% | 1% | 0% | 9% | CN(C)c1ccc(/C=C2\C(=O)Nc3ccccc32)cc1 |
| 16% | 27% | 0% | 7% | 4% | 11% | NC1N[N](=Cc2coc3ccccc3c2=O)->[Cu]([Cl])([Cl])[SH]=1 |
| 9% | 0% | 0% | 12% | 0% | 9% | COc1ccc(C(=O)Nc2sc3c(c2C(N)=O)CCCC3)cc1OC |
| 0% | 2% | 31% | 3% | 0% | 1% | O=S(=O)(c1cccc2c(Cl)cccc12)N1CCCNCC1 |
| 50% | 0% | 0% | 0% | 45% | 22% | Cc1cc(C)c(/C=C2\C(=O)Nc3ccccc32)[nH]1 |
| 0% | 0% | 74% | 0% | 0% | 4% | O=c1cc(N2CCOCC2)oc2c1ccc1ccccc12 |
| 0% | 0% | 5% | 2% | 0% | 0% | N#C/C(=C(/N)Sc1ccc(N)cc1)c1ccccc1C(F)(F)F |
| 0% | 0% | 0% | 0% | 1% | 0% | O=C(Nc1cc(C(F)(F)F)cc(C(F)(F)F)c1)c1cc(Cl)ccc1O |
| 45% | 0% | 0% | 0% | 49% | 21% | c1cc(-c2cnn3cc(-c4ccc(OCCN5CCCCC5)cc4)cnc23)ccn1 |
| 25% | 62% | 96% | 62% | 23% | 31% | Cn1cc(C2=C(c3cn(CCCSC(=N)N)c4ccccc34)C(=O)NC2=O)c2ccccc21 |
| 1% | 18% | 9% | 32% | 1% | 60% | CC(C)(C)n1nc(-c2cccc3ccccc23)c2c(N)ncnc21 |
| 0% | 0% | 44% | 6% | 0% | 3% | CN1CCC(Nc2ncc3ncnc(Nc4ccc(F)c(Cl)c4)c3n2)CC1 |
| 0% | 0% | 0% | 0% | 0% | 3% | Cc1cc(I)ccc1Nc1c(C(=O)NOCC2CC2)cc(F)c(F)c1F |

| Structure (SMILES) | inhibition (PRKAA1 (human)) | inhibition (AKT1 (human)) | inhibition (PIM1 (human)) | inhibition (PRKACA (mouse)) | inhibition (PRKAA2 (human)) | inhibition (FGFR1 (human)) |
| --- | --- | --- | --- | --- | --- | --- |
| N#C/C(=C\c1ccc(O)c(O)c1)C(N)=S | 0% | 0% | 30% | 4% | 0% | 11% |
| CC(C)[C@H](CO)Nc1nc(Nc2ccc(C(=O)O)c(Cl)c2)c2ncn(C(C)C)c2n1 | 0% | 0% | 10% | 21% | 0% | 59% |
| CC1=C(O)C(=O)[C@@H]2OC2C1=O (stereo partly drawn) | 0% | 0% | 5% | 0% | 0% | 3% |
